This test concerns THP1-Dual™ reporter cells. Description: THP1-Dual cell reporter assay (IRF-Lucia luciferase reporter). The format is cell-based, human. Put shortly:
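THP1-Dual monocytic cells (~100,000/well) were exposed to compound for 24 h (ADCs 48 h). Secreted IRF-driven Lucia luciferase in the supernatant was quantified by QUANTI-Luc luminescence.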
(In general: A reporter such as luciferase makes a cellular process visible.)

The mark [1] stands for this setting: ADCs: drug linker conjugated to a targeted mAb, 48 h.
[2] abbreviates: Homo sapiens, THP1-Dual, free compounds, 24 h, Lucia reporter signal, read-out: EC50.

Where two headings read alike, the source gives them in different places. A value given as a limit tells only on which side of the number the result lay.

`CCn1cc(C)nc1C(=O)Nc1nc2cc(C(N)=O)cc(OCCCN(C)C(=O)CCN3C(=O)C=CC3=O)c2n1C/C=C/Cn1c(NC(=O)c2cc(C)nn2CC)nc2cc(C(N)=O)cc(OC)c21` [Compound 103]: the “EC50 (ng/mL)” value under setting [1] is listed as >10,000 ng/mL.
For orientation: EC50 means the midpoint of the concentration-response curve. `CCn1nc(C)cc1C(=O)Nc1nc2cc(S(N)(=O)=O)ccc2n1C/C=C/Cn1c(NC(=O)c2cc(C)nn2C)nc2cc(C(N)=O)cc(OCCCNC)c21` [Compound 139]: the half-maximal effective concentration (EC50) under setting [2] was > 4000 nM.
On to `CCn1nc(C)cc1C(=O)Nc1nc2cc(C(N)=O)cc(OC)c2n1C/C=C/Cn1c(NC(=O)c2ccnnc2)nc2cc(C(N)=O)cc(OCCCN(C)C(=O)CCN3C(=O)C=CC3=O)c21` [Compound 98], for which the “EC50 (ng/mL)” value under setting [1] is >10,000 ng/mL.
For the compound `CCc1nc(C)sc1C(=O)Nc1nc2cc(C(N)=O)cc(OCCCN(C)C(=O)CCN3C(=O)C=CC3=O)c2n1C/C=C/Cn1c(NC(=O)c2cc(C)nn2CC)nc2cc(C(N)=O)cc(OC)c21` [Compound 111], the concentration giving a half-maximal response (EC50) under setting [1] is 0.0132 µg/mL.
For `CCn1cccc1C(=O)Nc1nc2cc(C(N)=O)cc(O)c2n1C/C=C/Cn1c(NC(=O)c2cccn2CC)nc2cc(C(N)=O)cc(OC)c21` [Compound 41], under setting [2], the concentration giving a half-maximal response (EC50) is > 10000 nM.
As for `CCn1nc(C)cc1C(=O)Nc1nc2cc(C(N)=O)cc(OC)c2n1C/C=C/Cn1c(NC(=O)c2cccnn2)nc2cc(C(N)=O)cc(OCCCNC)c21` [Compound 79], under setting [2], the concentration giving a half-maximal response (EC50) was > 10000 nM.
On to `CCn1nc(C)cc1C(=O)Nc1nc2cc(C(N)=O)cc(OC)c2n1C/C=C/Cn1c(NC(=O)c2cc(C)nn2CC)nc2cc(C(N)=O)cc(OCCC3CN(C(=O)OC(C)(C)C)C3)c21` [Compound 26e], for which the 50% effective concentration (EC50) (free compounds, 24 h, Lucia reporter signal, read-out: EC50) stood at 5 nM.
On to `COc1cc(C(N)=O)cc2nc(NC(=O)c3cc(C)nn3C)n(C/C=C/Cn3c(NC(=O)c4cc(C)nn4C)nc4cc(C(N)=O)cc(O)c43)c12` [Compound 54], for which the concentration giving a half-maximal response (EC50) under setting [2] is > 10000 nM.
Still for that read-out and setting: in the case of `CC[C@H](C)[C@H](N)C(=O)N(C)CCCOc1cc(C(N)=O)cc2nc(NC(=O)c3cc(C)nn3CC)n(C/C=C/Cn3c(NC(=O)c4cc(C)nn4CC)nc4cc(C(N)=O)cc(OC)c43)c12` [Compound 115] it was 17.4 nM.
On to `CCn1nc(C)cc1C(=O)Nc1nc2cc(C(N)=O)cc(OC)c2n1C/C=C/Cn1c(NC(=O)c2cc(C)nn2CC)nc2cc(C(N)=O)cc(OCCC[N+](C)(C)Cc3ccc(O[C@@H]4O[C@H](C(=O)O)[C@@H](O)[C@H](O)[C@H]4O)cc3NC(=O)CCNC(=O)CCN3C(=O)C=CC3=O)c21.O=C([O-])C(F)(F)F` [Compound 134], for which the “EC50” value under setting [1] came to 0.0103 µg/mL.
Regarding `COc1cc(C(N)=O)cc2nc(NC(=O)c3ccnnc3)n(C/C=C/Cn3c(NC(=O)c4ccnnc4)nc4cc(C(N)=O)cc(O)c43)c12` [Compound 43], the half-maximal effective concentration (EC50) under setting [2] was > 10000 nM.
For the compound `CCn1nc(C)cc1C(=O)Nc1nc2cc(S(N)(=O)=O)ccc2n1C/C=C/Cn1c(NC(=O)c2cc(C)nn2C)nc2cc(C(N)=O)cc(OCCCOC3CNC3)c21` [Compound 138], the EC50 under setting [2] was > 5000 nM.
For `COc1cc(C(N)=O)cc2nc(NC(=O)c3cc(C)ns3)n(C/C=C/Cn3c(NC(=O)c4cc(C)ns4)nc4cc(C(N)=O)cc(O)c43)c12` [Compound 60], the EC50 under setting [2] was > 10000 nM.
Still for that read-out and setting: in the case of `CCn1nc(C)cc1C(=O)Nc1nc2cc(C(N)=O)cc(OC)c2n1C/C=C/Cn1c(NC(=O)c2cc(C)nn2CC)nc2cc(C(N)=O)cc(OCCCN(C)C(=O)[C@@H](N)CC(C)C)c21` [Compound 114] it was 9.4 nM.
For `CCn1nc(C)cc1C(=O)Nc1nc2cc(C(N)=O)cc(OC)c2n1C/C=C/Cn1c(NC(=O)c2cc(C)on2)nc2cc(C(N)=O)cc(OCCCNC)c21` [Compound 81], the concentration for a half-maximal effect (EC50) under setting [2] was > 10000 nM.
Regarding `CCn1nc(C)cc1C(=O)Nc1nc2cc(C(N)=O)cc(OC)c2n1C/C=C/Cn1c(NC(=O)c2ccnn2CC)nc2cc(C(N)=O)cc(OCCCN(C)C(=O)CCN3C(=O)C=CC3=O)c21` [Compound 108], the 50% effective concentration (EC50) under setting [1] turned out to be 0.0635 µg/mL.
As for `CCn1nc(C)cc1C(=O)Nc1nc2cc(C(N)=O)cc(OC)c2n1C/C=C/Cn1c(NC(=O)c2cc(C)nn2CC)nc2cc(C(N)=O)cc(OCCC3CN(C(=O)CCN4C(=O)CC(SC[C@H](N)C(=O)O)C4=O)C3)c21` (stereo partly drawn) [Compound 29, S-(1-(3-(3-(2-((5-carbamoyl-1-((E)-4-(5-carbamoyl-2-(1-ethyl-3-methyl-1H-pyrazole-5-carboxamido)-7-methoxy-1H-benzo[d]imidazol-1-yl)but-2-en-1-yl)-2-(1-ethyl-3-methyl-1H-pyrazole-5-carboxamido)-1H-benzo[d]imidazol-7-yl)oxy)ethyl)azetidin-1-yl)-3-oxopropyl)-2,5-dioxopyrrolidin-3-yl)-L-cysteine], the concentration for a half-maximal effect (EC50) under setting [2] came to 52 nM.
Consider `CCn1nc(C)cc1C(=O)Nc1nc2cc(C(N)=O)cc(OC)c2n1C/C=C/Cn1c(NC(=O)c2cc(C)nn2CC)nc2cc(C(N)=O)cc(OCCCN(C)C(=O)CNC(=O)CCN3C(=O)CC(SC[C@H](N)C(=O)O)C3=O)c21` (stereo partly drawn) [Compound 73], for which the EC50 under setting [2] came out at 216 nM.
Turning to `CCn1nc(C)cc1C(=O)Nc1nc2cc(C(N)=O)cc(OC)c2n1C/C=C/Cn1c(NC(=O)c2cc(C)nn2C)nc2cc(C(N)=O)cc(OCCCNC)c21` [Compound 88], under setting [2], the EC50 was determined as 394 nM.
On the same count and under the same terms, in the case of `CCn1nc(C)cc1C(=O)Nc1nc2cc(C(N)=O)cc(OC)c2n1C/C=C/Cn1c(NC(=O)c2cc(C)nn2CC)nc2cc(C(N)=O)cc(OCCCN(C)C(=O)[C@@H](N)CCC(=O)OC)c21` [Compound 117] it was 14.6 nM.
The same measure, in the same setting: in the case of `CCn1nc(C)cc1C(=O)Nc1nc2cc(C(=O)OC)cc(O)c2n1C/C=C/Cn1c(NC(=O)c2cc(C)nn2CC)nc2cc(C(=O)OC)cc(OC)c21` [Compound 62, methyl (E)-2-(1-ethyl-3-methyl-1H-pyrazole-5-carboxamido)-1-(4-(2-(1-ethyl-3-methyl-1H-pyrazole-5-carboxamido)-7-hydroxy-5-(methoxycarbonyl)-1H-benzo[d]imidazol-1-yl)but-2-en-1-yl)-7-methoxy-1H-benzo[d]imidazole-5-carboxylate] it was > 10000 nM; in that of `CCn1nc(C(F)(F)F)cc1C(=O)Nc1nc2cc(C(N)=O)cc(O)c2n1C/C=C/Cn1c(NC(=O)c2cc(C(F)(F)F)nn2CC)nc2cc(C(N)=O)cc(OC)c21` [Compound 52], > 10000 nM; in that of `COc1cc(C(N)=O)cc2nc(NC(=O)c3cc(Cl)nn3C)n(C/C=C/Cn3c(NC(=O)c4cc(Cl)nn4C)nc4cc(C(N)=O)cc(O)c43)c12` [Compound 50], > 10000 nM.
Still for that read-out and setting: under `CCn1nc(C)cc1C(=O)Nc1nc2cc(C(N)=O)cc(OC)c2n1C/C=C/Cn1c(NC(=O)c2cc(C)nn2CC)nc2cc(C(N)=O)cc(OCCCN(C)C(=O)[C@H](CC(=O)O)NC(=O)CCN3C(=O)CC(SC[C@H](N)C(=O)O)C3=O)c21` (stereo partly drawn) [Compound 71] stands 70.1 nM; under `COc1cc(C(N)=O)cc2nc(NC(=O)c3cc(C)on3)n(C/C=C/Cn3c(NC(=O)c4cc(C)on4)nc4cc(C(N)=O)cc(O)c43)c12` [Compound 39], > 10000 nM.
Consider `CCn1nc(C)cc1C(=O)Nc1nc2cc(C(N)=O)cc(OC)c2n1C/C=C/Cn1c(NC(=O)c2cccnn2)nc2cc(C(N)=O)cc(OCCCN(C)C(=O)CCN3C(=O)C=CC3=O)c21` [Compound 96], for which the “EC50 (ng/mL)” value under setting [1] is >10,000 ng/mL.
In the case of `CCn1nc(C)cc1C(=O)Nc1nc2cc(C(N)=O)cc(OC)c2n1C/C=C/Cn1c(NC(=O)c2cc(C)nn2CC)nc2cc(C(N)=O)cc(OCCCOC3CN(C(=O)CCN4C(=O)CC(SC[C@H](N)C(=O)O)C4=O)C3)c21` (stereo partly drawn) [Compound 30, S-(1-(3-(3-(3-((5-carbamoyl-1-((E)-4-(s-carbamoyl-2-(1-ethyl-3-methyl-1H-pyrazole-5-carboxamido)-7-methoxy-1H-benzo[d]imidazol-1-yl)but-2-en-1-yl)-2-(1-ethyl-3-methyl-1H-pyrazole-5-carboxamido)-1H-benzo[d]imidazol-7-yl)oxy)propoxy)azetidin-1-yl)-3-oxopropyl)-2,5-dioxopyrrolidin-3-yl)-L-cysteine], the EC50 under setting [2] came out at 87 nM.
Consider `CCc1nc(C)oc1C(=O)Nc1nc2cc(C(N)=O)cc(OCCCOC3CN(C(=O)CCN4C(=O)CC(SC[C@H](N)C(=O)O)C4=O)C3)c2n1C/C=C/Cn1c(NC(=O)c2cc(C)nn2CC)nc2cc(C(N)=O)cc(OC)c21` (stereo partly drawn) [Compound 156, S-(1-(3-(3-(3-((5-carbamoyl-1-((E)-4-(5-carbamoyl-2-(1-ethyl-3-methyl-1H-pyrazole-5-carboxamido)-7-methoxy-1H-benzo[d]imidazol-1-yl)but-2-en-1-yl)-2-(4-ethyl-2-methyloxazole-5-carboxamido)-1H-benzo[d]imidazol-7-yl)oxy)propoxy)azetidin-1-yl)-3-oxopropyl)-2,5-dioxopyrrolidin-3-yl)-L-cysteine], for which, under setting [2], the EC50 was determined as 1560 nM.
Still for that read-out and setting: in the case of `CCn1nc(C)cc1C(=O)Nc1nc2cc(C(=O)O)cc(OC)c2n1C/C=C/Cn1c(NC(=O)c2cc(C)nn2CC)nc2cc(C(N)=O)cc(OCCCN(C)C(=O)CCN3C(=O)CC(SC[C@H](N)C(=O)O)C3=O)c21` (stereo partly drawn) [Compound 130, 1-((E)-4-(7-(3-(3-(3-(((R)-2-amino-2-carboxyethyl)thio)-2,5-dioxopyrrolidin-1-yl)-N-methylpropanamido)propoxy)-5-carbamoyl-2-(1-ethyl-3-methyl-1H-pyrazole-5-carboxamido)-1H-benzo[d]imidazol-1-yl)but-2-en-1-yl)-2-(1-ethyl-3-methyl-1H-pyrazole-5-carboxamido)-7-methoxy-1H-benzo[d]imidazole-5-carboxylicacid] it was 2260 nM; in that of `CCn1ncc(C)c1C(=O)Nc1nc2cc(C(N)=O)cc(O)c2n1C/C=C/Cn1c(NC(=O)c2c(C)cnn2CC)nc2cc(C(N)=O)cc(OC)c21` [Compound 31], 176 nM.
As for `CCn1nc(C)cc1C(=O)Nc1nc2cc(C(N)=O)cc(OC)c2n1C/C=C/Cn1c(NC(=O)c2cc(C)nn2CC)nc2cc(C(N)=O)cc(OCCCN(C)C(=O)[C@@H](NC(=O)CCN3C(=O)C=CC3=O)[C@@H](C)OC)c21` [Compound 125], the 50% effective concentration (EC50) under setting [1] is 0.0014 µg/mL.
Turning to `CCc1oc(C)cc1C(=O)Nc1nc2cc(C(N)=O)cc(OCCCNC)c2n1C/C=C/Cn1c(NC(=O)c2cc(C)nn2CC)nc2cc(C(N)=O)cc(OC)c21` [Compound 89], the EC50 under setting [2] amounted to 1320 nM.
Consider `CCc1oc(C)cc1C(=O)Nc1nc2cc(C(N)=O)cc(OCCCN(C)C(=O)CCN3C(=O)C=CC3=O)c2n1C/C=C/Cn1c(NC(=O)c2cc(C)nn2CC)nc2cc(C(N)=O)cc(OC)c21` [Compound 106], for which the “EC50 (ng/mL)” value under setting [1] is recorded as >10,000 ng/mL.

Values taken from patent US20240123079A1 (Seagen Inc., priority 2021, published 2024).
